Structures can show the parent of a compound that is named as a salt.
Tests used:
[1] = test system: K. pneumoniae ATCC13883; experiment: Assay 4: boosting of antibiotic activity by EPI example 37 in K. pneumoniae ATCC13883; type: cell-based, Klebsiella pneumoniae
Description: (§1) Escherichia coli BW25113 (CGSC 7636) and its derivatives E. coli ΔtolC (JW5503-1, ΔtolC732::kan, CGSC 11430), E. coli ΔacrA (JW0452-3, ΔacrA748::kan, CGSC 11843) and E. coli ΔacrB (JW0451-2, ΔacrB747::kan, CGSC 8609) were obtained from E. coli Genetic Stock Center (CGSC, New Haven, Connecticut) and originated from the Keio Collection (Baba T et al, Mol Sys Biol, 2006). Klebsiella pneumoniae (LMG 2095/ATCC 13883) and K. pneumoniae (ATCC43816), Pseudomonas aeruginosa (PAO1), Acinetobacter baumannii (LMG 1025, ATCC 17978), were obtained from ATCC or BCCM/LMG Bacteria Collection. All bacteria were grown and tested in cation-adjusted Mueller-Hinton broth (CAMHB; BD Difco) at 37° C. For conservation, log phase bacteria were frozen (−80° C.) in CAMHB supplemented with 15% glycerol.
(§2) Measurement of the Impact of EPI Example 37 on the Boosting of Antibiotic Activity in E. coli, A. baumannii, K. pneumoniae and P. aeruginosa.
(§3) Bacterial suspensions were then prepared in CAMHB from a growing pre-culture, (E. coli [OD600=0.001], A. baumannii [OD600=0.001], K. pneumoniae [OD600=0.001] and P. aeruginosa [OD600=0.001]), and added to the microplate using a ViaFill. Microplate containing bacterial cultures were then grown (5 h or 24 h, 37° C.) and bacterial viability determined by either resazurin reduction or OD600.

[2] = test system: A. baumannii LMG; experiment: Assay 4: boosting of antibiotic activity by EPI example 37 in A. baumannii; type: cell-based, Acinetobacter baumannii; settings: MIC of the named antibiotic boosted by 100 μM example 37
Description: as §1, §2, §3

[3] = test system: E. coli BW25113; experiment: Assay 4: boosting of antibiotic activity by EPI example 37 in E. coli; type: cell-based, Escherichia coli; settings: MIC of the named antibiotic boosted by 100 μM example 37
Description: as §1, §2, §3

[4] = test system: K. pneumoniae ATCC43816; experiment: Assay 4: boosting of antibiotic activity by EPI example 37 in K. pneumoniae ATCC43816; type: cell-based, Klebsiella pneumoniae; settings: MIC of the named antibiotic boosted by 100 μM example 37
Description: as §1, §2, §3

[5] = test system: P. aeruginosa PAO1; experiment: Assay 4: boosting of antibiotic activity by EPI example 37 in P. aeruginosa; type: cell-based, Pseudomonas aeruginosa; settings: MIC of the named antibiotic boosted by 100 μM example 37
Description: as §1, §2, §3

[6] = test system: A. baumannii LMG 1025 (ATCC 17978); experiment: Assay 3: growth inhibition of A. baumannii by sub-inhibitory novobiocin in combination with examples (resazurin reduction); type: cell-based; settings: Acinetobacter baumannii; antibiotic alone, no EPI
[7] = test system: A. baumannii LMG 1025 (ATCC 17978); experiment: Assay 2: growth inhibition of A. baumannii by sub-inhibitory chloramphenicol in combination with examples (resazurin reduction); type: cell-based; settings: Acinetobacter baumannii; antibiotic alone, no EPI
[8] = test system: A. baumannii LMG 1025 (ATCC 17978); experiment: Assay 3: growth inhibition of A. baumannii by sub-inhibitory novobiocin in combination with examples (resazurin reduction); type: cell-based, Acinetobacter baumannii; settings: 5 μg/mL novobiocin, 5 h or 24 h, 37° C., read-out: EC90 on A. baumannii with 5 μg/mL of novobiocin
Description: as §1
Measurement of growth Inhibition of A. baumannii strains by sub Inhibitory concentrations of novobiocin In combination with examples 1-137
For the evaluation of the dose dependent activity of examples 1-137, their ability to boost the antibacterial activity of sub-inhibitory concentrations novobiocin was determined. Briefly, A. baumannii LMG 1025 (ATCC 17978) were diluted from frozen or growing stocks to an OD600 of 0.001 in CAMHB. The bacterial suspension was then used as such (no—antibiotic control to evaluate EPI activity), or spiked with novobiocin at a final concentration of 5 μg/mL. Bacteria were then added to microplates carrying serial dilutions of the compounds examples 1-137, and incubated for (5 h or 24 h, 37° C.). Bacterial viability was evaluated using the resazurin reduction assay, and measured by fluorescence (POLARstar Omega, BMG Labtech: Ex: 530 nm Em: 590 nm). […] were defined as the compound concentration that prevented 90% of resazurin turnover compared to the non-treated bacteria.

[9] = test system: A. baumannii LMG 1025 (ATCC 17978); experiment: Assay 2: growth inhibition of A. baumannii by sub-inhibitory chloramphenicol in combination with examples (resazurin reduction); type: cell-based, Acinetobacter baumannii; settings: read-out: EC90 on A. baumannii with 10 μg/mL of chloramphenicol, 10 μg/mL chloramphenicol, 5 h or 24 h, 37° C.
Method in brief: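 Acinetobacter baumannii LMG 1025 (ATCC 17978), taken from frozen or growing stocks, was diluted to an OD600 of 0.001 in cation-adjusted Mueller-Hinton broth. The suspension was supplemented with 10 μg/mL chloramphenicol, a sub-inhibitory level. It was added to microplates holding serial compound dilutions and incubated 5 h or 24 h at 37° C. Viability was read by resazurin reduction fluorescence (Ex 530 nm, Em 590 nm), and the effective concentration was set at 90% inhibition of resazurin turnover relative to untreated bacteria.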

[10] = test system: E. coli BW25113; experiment: Assay 1: growth inhibition of E. coli by sub-inhibitory pyridomycin in combination with examples (resazurin reduction); type: cell-based, Escherichia coli; settings: read-out: EC50 on E. coli with 8 μg/mL of pyridomycin, 8 μg/mL pyridomycin, 5 h, 37° C.
Method in brief: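 E. coli BW25113 at OD600 0.0004–0.001 was grown in CAMHB at 37 °C. Viability was read by resazurin reduction fluorescence (Ex 530/Em 590 nm). EC50 is the concentration preventing 50% of resazurin turnover relative to untreated bacteria.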

[11] = MIC of the named antibiotic boosted by 100 μM example 37

SMILES | K. pneumoniae ATCC13883 Fold Boosted MIC By 100 μM example 37 [1, 11] | E. coli BW25113 Fold Boosted MIC By 100 μM example 37 [3] | K. pneumoniae ATCC43816 Fold Boosted MIC By 100 μM example 37 [4] | also measured
Oc1cc(Cl)ccc1Oc1ccc(Cl)cc1Cl [Triclosan (TRC), Triclosan] | *** (*** = 8 fold +) | * (* = 2-3.9 fold) | *** (*** = 8 fold +) | A. baumannii LMG Fold Boosted MIC By 100 μM example 37 [2]: * (* = 2-3.9 fold)
CC1(C)S[C@@H]2[C@H](NC(=O)[C@H](N)c3ccccc3)C(=O)N2[C@H]1C(=O)O [Ampicillin (AMP), Ampicillin] |  | * (* = 2-3.9 fold) |  | 
CO/N=C(\C(=O)N[C@@H]1C(=O)N2C(C(=O)[O-])=C(C[N+]3(C)CCCC3)CS[C@H]12)c1csc(N)n1 [Cefepime (CEP), Cefepime] |  |  | * (* = 2-3.9 fold) | 
Cc1onc(-c2ccccc2)c1C(=O)N[C@@H]1C(=O)N2[C@@H]1SC(C)(C)[C@@H]2C(=O)O [Oxacillin (OXA), Oxacillin] | *** (*** = 8 fold +) | *** (*** = 8 fold +) | *** (*** = 8 fold +) | P. aeruginosa PAO1 Fold Boosted MIC By 100 μM example 37 [5]: * (* = 2-3.9 fold)
CC(=O)NC[C@H]1CN(c2ccc(N3CCOCC3)c(F)c2)C(=O)O1 [Linezolid (LIN), Linezolid] | *** (*** = 8 fold +) | *** (*** = 8 fold +) | *** (*** = 8 fold +) | A. baumannii LMG Fold Boosted MIC By 100 μM example 37 [2]: * (* = 2-3.9 fold); P. aeruginosa PAO1 Fold Boosted MIC By 100 μM example 37 [5]: * (* = 2-3.9 fold)
CCN1CCN(C(=O)N[C@@H](C(=O)N[C@@H]2C(=O)N3[C@@H]2SC(C)(C)[C@@H]3C(=O)O)c2ccccc2)C(=O)C1=O [Piperacillin (PPC), Piperacillin] | * (* = 2-3.9 fold) | ** (** = 4-7.9 fold) | * (* = 2-3.9 fold) | 
[H]/N=C(/N)N[C@H]1[C@H](O)[C@@H](O)[C@H](O[C@@H]2O[C@@H](C)[C@](O)(C=O)[C@H]2O[C@@H]2O[C@@H](CO)[C@H](O)[C@@H](O)[C@@H]2NC)[C@@H](N/C(N)=N\[H])[C@@H]1O [Streptomycin (STP), Streptomycin] |  |  |  | P. aeruginosa PAO1 Fold Boosted MIC By 100 μM example 37 [5]: * (* = 2-3.9 fold)
CC[C@H]1OC(=O)[C@H](C)[C@@H](O[C@H]2C[C@@](C)(OC)[C@@H](O)[C@H](C)O2)[C@H](C)[C@@H](O[C@@H]2O[C@H](C)C[C@H](N(C)C)[C@H]2O)[C@](C)(O)C[C@@H](C)C(=O)[C@H](C)[C@@H](O)[C@]1(C)O [Erythromycin (ERY), Erythromycin] | *** (*** = 8 fold +) | ** (** = 4-7.9 fold) | ** (** = 4-7.9 fold) | 
CC(=O)O[C@H]1C[C@@]2(C)[C@@H](C[C@@H](O)[C@H]3[C@@]4(C)CC[C@@H](O)[C@@H](C)[C@@H]4CC[C@@]32C)/C1=C(\CCC=C(C)C)C(=O)O [Fusidic Acid (FUS), Fusidic Acid] |  | *** (*** = 8 fold +) | ** (** = 4-7.9 fold) | K. pneumoniae ATCC13883 Fold Boosted MIC By 100 μM example 37 ([1]; 100 μM example 37): 2-4 fold
CN(C)[C@@H]1C(O)=C(C(N)=O)C(=O)[C@@]2(O)C(O)=C3C(=O)c4c(O)cccc4[C@@](C)(O)[C@H]3C[C@@H]12 [Tetracycline (TET), Tetracycline] | * (* = 2-3.9 fold) | * (* = 2-3.9 fold) |  | 
CO[C@@H]1[C@@H](OC(N)=O)[C@@H](O)[C@H](Oc2ccc3c(O)c(NC(=O)c4ccc(O)c(CC=C(C)C)c4)c(=O)oc3c2C)OC1(C)C [novobiocin] | *** (*** = 8 fold +) | *** (*** = 8 fold +) | ** (** = 4-7.9 fold) | MIC90 [6]: 12.5 µg/mL
O=C(N[C@H](CO)[C@H](O)c1ccc([N+](=O)[O-])cc1)C(Cl)Cl [chloramphenicol] | ** (** = 4-7.9 fold) | *** (*** = 8 fold +) | * (* = 2-3.9 fold) | A. baumannii LMG Fold Boosted MIC By 100 μM example 37 [2]: * (* = 2-3.9 fold); MIC90 [7]: 25 to 100 µg/mL
O=C(O)c1cn(C2CC2)c2cc(N3CCNCC3)c(F)cc2c1=O [Ciprofloxacin (CIP), Ciprofloxacin] | *** (*** = 8 fold +) | *** (*** = 8 fold +) | *** (*** = 8 fold +) | 
Brc1cnc(N[C@H]2[C@@H]3CNC[C@@H]32)c2ccccc12 [Example 58, N-[(1R,5S)-3-azabicyclo[3.1.0]hexan-6-yl]-4-bromo-isoquinolin-1-amine;hydrochloride] |  |  |  | EC90 [8]: 100 to 500 µM; EC90 [9]: 100 to 500 µM; EC50 [10]: 5 to 100 µM
CC[C@H]1OC(=O)[C@H](C)[C@@H](O[C@H]2C[C@@](C)(OC)[C@@H](O)[C@H](C)O2)[C@H](C)[C@@H](O[C@@H]2O[C@H](C)C[C@H](N(C)C)[C@H]2O)[C@](C)(O)C[C@@H](C)CN(C)[C@H](C)[C@@H](O)[C@]1(C)O [Azithromycin (AZY), Azithromycin] | ** (** = 4-7.9 fold) |  | ** (** = 4-7.9 fold) | P. aeruginosa PAO1 Fold Boosted MIC By 100 μM example 37 [5]: *** (*** = 8 fold +)

From patent US20240327354A1, “GRAM-NEGATIVE BACTERIA EFFLUX PUMP INHIBITORS” (INSTITUT NATIONAL DE LA SANTÉ ET DE LA RECHERCHE MÉDICALE, priority 2021, published 2024)
